US20230081426A1, “COMPOUNDS AND METHODS FOR KRAS MODULATION AND INDICATIONS THEREFOR” (Plexxikon Inc., priority 2020, published 2023)

Tests used:
[1] = biological target: T1, G12C-mutant human KRAS (amino acid residues 1-188) (Homo sapiens, UniProt P01116, G12C); assay: KRAS Binding Disruption Assay (AlphaScreen; biotinylated KRpep-2d analogue or RAF1-RBD), G12C; conditions: geometric mean, read-out: KRAS GMean IC50 (uM) MUTATION: G12C
T1 construct: G12D or G12C-mutant human KRAS (amino acid residues 1-188) with FLAG tag; made in house; host or cells: E. coli
T1 sequence (P01116 1-188 isoform P01116-2 G12C): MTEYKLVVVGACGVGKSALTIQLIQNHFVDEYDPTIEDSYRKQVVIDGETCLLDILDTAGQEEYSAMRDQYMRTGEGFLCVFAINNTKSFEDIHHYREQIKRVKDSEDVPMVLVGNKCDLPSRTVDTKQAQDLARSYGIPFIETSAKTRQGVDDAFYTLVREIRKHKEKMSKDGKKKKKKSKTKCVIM
Description: Compound binding disrupts the interaction of KRpep-2d or RAF1-RBD with KRAS, leading to a decrease in Alpha signal.
All assay components were prepared in 20 mM HEPES (pH 7.5), 100 mM NaCl, 5 mM MgCl2, 0.01% Tween-20, and 0.01% BSA. Biotinylated analogues of KRpep-2d were custom synthesized. The binding disruption assays were performed using 5-20 nM of mutant KRAS and 5-20 nM of either biotinylated KRpep-2d analogue or RAF1-RBD. 19 μL of KRAS protein and 4 μL of biotinylated KRpep-2d or RAF1-RBD were added to the wells of a 384-well plate containing 1 μL of various concentrations of test compound or DMSO vehicle. 16 wells containing KRAS, biotinylated KRpep-2d or RAF1-RBD, and 5% DMSO served as high controls. 16 wells containing KRAS only and 5% DMSO served as low controls. Binding reactions were incubated for 1 hour at 25° C., then Anti-Flag Acceptor and Streptavidin Donor Alpha beads were added at a final concentration of 10 μg/mL for an additional hour at room temperature. Alpha signal was read out on a Perkin Elmer Envision HTS instrument. The percentage inhibition at individual compound concentrations relative to high and low controls was calculated. The data were analyzed by using nonlinear regression to generate IC50 values.

[2] = biological target: T2, G12D-mutant human KRAS (amino acid residues 1-188) (Homo sapiens, UniProt P01116, G12D); assay: KRAS Binding Disruption Assay (AlphaScreen; biotinylated KRpep-2d analogue or RAF1-RBD), G12D; conditions: KRAS G12D; geometric mean; read-out: KRAS GMean IC50 (uM) MUTATION: G12D
T2 construct: G12D or G12C-mutant human KRAS (amino acid residues 1-188) with FLAG tag; made in house; host or cells: E. coli
T2 sequence (P01116 1-188 isoform P01116-2 G12D): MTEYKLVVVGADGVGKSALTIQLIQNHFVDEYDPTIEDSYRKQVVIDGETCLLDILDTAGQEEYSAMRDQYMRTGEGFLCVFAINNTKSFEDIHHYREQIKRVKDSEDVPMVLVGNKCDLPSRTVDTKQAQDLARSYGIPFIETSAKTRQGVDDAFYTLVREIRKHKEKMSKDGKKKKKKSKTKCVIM
How it was run: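 Mutant KRAS (5-20 nM) incubated 1 h at 25° C with test compound and 5-20 nM biotinylated KRpep-2d analogue or RAF1-RBD in 20 mM HEPES pH 7.5, 100 mM NaCl, 5 mM MgCl2, 0.01% Tween-20, 0.01% BSA.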

For `CN1CCC[C@H]1COc1nc(N2C[C@H]3CC[C@@H](C2)O3)c2ccc(-c3cc(O)cc4ccccc34)c(F)c2n1` [P-0114, 4-(4-((1R,5S)-8-oxa-3-azabicyclo[3.2.1]octan-3-yl)-8-fluoro-2-(((S)-1-methylpyrrolidin-2-yl)methoxy)quinazolin-7-yl)naphthalen-2-ol], the IC50 [1] was 0.0001 to 10 µM and the IC50 [2] was 0.0001 to 10 µM.
In the case of `CCc1cccc2[nH]cc(-c3ncc4c(N5C[C@H]6CC[C@@H](C5)N6)nc(OC[C@@]56CCCN5C[C@H](F)C6)nc4c3F)c12` [P-0505, 4-((1R,5S)-3,8-diazabicyclo[3.2.1]octan-3-yl)-7-(4-ethyl-1H-indol-3-yl)-8-fluoro-2-(((2R,7aS)-2-fluorotetrahydro-1H-pyrrolizin-7a(5H)-yl)methoxy)pyrido[4,3-d]pyrimidine], the IC50 [1] was 0.0001 to 10 µM and the IC50 [2] was 0.0001 to 10 µM.
Work on `Oc1cc(-c2ccc3c(N4C[C@H]5CC[C@@H](C4)N5)nc(N4CC(O)(C5CC5)C4)nc3c2F)c2ccccc2c1` [P-0636, 1-(4-((1R,5S)-3,8-diazabicyclo[3.2.1]octan-3-yl)-8-fluoro-7-(3-hydroxynaphthalen-1-yl)quinazolin-2-yl)-3-cyclopropylazetidin-3-ol] yielded an IC50 [1] of 0.0001 to 10 µM and an IC50 [2] of 0.0001 to 10 µM.
With `CCN(CC)C1CN(c2nc(N3C[C@H]4CC[C@@H](C3)N4)c3ccc(-c4cc(O)cc5ccccc45)c(F)c3n2)C1` [P-0637, 4-(4-((1R,5S)-3,8-diazabicyclo[3.2.1]octan-3-yl)-2-(3-(diethylamino)azetidin-1-yl)-8-fluoroquinazolin-7-yl)naphthalen-2-ol] the IC50 [1] was 10 to 100 µM and the IC50 [2] was 0.0001 to 10 µM.
In the case of `Oc1cc(-c2ccc3c(N4C[C@H]5CC[C@@H](C4)N5)nc(N4CC(N5CC(F)C5)C4)nc3c2F)c2ccccc2c1` [P-0638, 4-(4-((1R,5S)-3,8-diazabicyclo[3.2.1]octan-3-yl)-8-fluoro-2-(3-fluoro-[1,3′-biazetidin]-1′-yl)quinazolin-7-yl)naphthalen-2-ol], the IC50 [1] was 10 to 100 µM and the IC50 [2] was 0.0001 to 10 µM.
In the case of `CN(C)C1(CNc2nc(N3C[C@H]4CC[C@@H](C3)N4)c3ccc(-c4cc(O)cc5ccccc45)c(F)c3n2)CCOCC1` [P-0639, 4-(4-((1R,5S)-3,8-diazabicyclo[3.2.1]octan-3-yl)-2-(((4-(dimethylamino)tetrahydro-2H-pyran-4-yl)methyl)amino)-8-fluoroquinazolin-7-yl)naphthalen-2-ol], the IC50 [1] was 10 to 100 µM and the IC50 [2] was 0.0001 to 10 µM.
In the case of `CN(C)C1(C(N)=O)CN(c2nc(N3C[C@H]4CC[C@@H](C3)N4)c3ccc(-c4cc(O)cc5ccccc45)c(F)c3n2)C1` [P-0640, 1-(4-((1R,5S)-3,8-diazabicyclo[3.2.1]octan-3-yl)-8-fluoro-7-(3-hydroxynaphthalen-1-yl)quinazolin-2-yl)-3-(dimethylamino)azetidine-3-carboxamide], the IC50 [1] was 10 to 100 µM and the IC50 [2] was 0.0001 to 10 µM.
Work on `CN1CCCC12CN(c1nc(N3C[C@H]4CC[C@@H](C3)N4)c3ccc(-c4cc(O)cc5ccccc45)c(F)c3n1)C2` [P-0641, 4-(4-((1R,5S)-3,8-diazabicyclo[3.2.1]octan-3-yl)-8-fluoro-2-(5-methyl-2,5-diazaspiro[3.4]octan-2-yl)quinazolin-7-yl)naphthalen-2-ol] yielded an IC50 [1] of 10 to 100 µM and an IC50 [2] of 0.0001 to 10 µM.
`NC(=O)CCN1[C@@H]2CC[C@H]1CN(c1nc(OCC34CCCN3CCC4)nc3c(F)c(-c4cc(O)cc5ccccc45)ccc13)C2` [P-0642, 3-((1R,5S)-3-(8-fluoro-7-(3-hydroxynaphthalen-1-yl)-2-((tetrahydro-1H-pyrrolizin-7a(5H)-yl)methoxy)quinazolin-4-yl)-3,8-diazabicyclo[3.2.1]octan-8-yl)propanamide] gave an IC50 [1] of 0.0001 to 10 µM and an IC50 [2] of 0.0001 to 10 µM.
`CN1CC2(C1)CN(c1nc(N3C[C@H]4CC[C@@H](C3)N4)c3ccc(-c4cc(O)cc5ccccc45)c(F)c3n1)C2` [P-0643, 4-(4-((1R,5S)-3,8-diazabicyclo[3.2.1]octan-3-yl)-8-fluoro-2-(6-methyl-2,6-diazaspiro[3.3]heptan-2-yl)quinazolin-7-yl)naphthalen-2-ol] gave an IC50 [1] of 10 to 100 µM and an IC50 [2] of 0.0001 to 10 µM.
`Fc1cc2c(N3C[C@H]4CC[C@@H](C3)N4)nc(OCC34CCCN3CCC4)nc2c(F)c1-c1c(Cl)cnc2[nH]ccc12` [P-0645, 4-((1R,5S)-3,8-diazabicyclo[3.2.1]octan-3-yl)-7-(5-chloro-1H-pyrrolo[2,3-b]pyridin-4-yl)-6,8-difluoro-2-((tetrahydro-1H-pyrrolizin-7a(5H)-yl)methoxy)quinazoline] gave an IC50 [1] of 10 to 100 µM and an IC50 [2] of 0.0001 to 10 µM.
In the case of `Cc1ccc2[nH]cc(-c3ccc4c(N5C[C@H]6CC[C@@H](C5)N6)nc(OCC56CCCN5CCC6)nc4c3F)c2c1F` [P-0646, 4-((1R,5S)-3,8-diazabicyclo[3.2.1]octan-3-yl)-8-fluoro-7-(4-fluoro-5-methyl-1H-indol-3-yl)-2-((tetrahydro-1H-pyrrolizin-7a(5H)-yl)methoxy)quinazoline], the IC50 [1] was 0.0001 to 10 µM and the IC50 [2] was 0.0001 to 10 µM.
For `CC(C)(COc1nc(N2C[C@H]3CC[C@@H](C2)N3)c2ccc(-c3cc(O)cc4ccccc34)c(F)c2n1)C(=O)O` [P-0647, 3-((4-((1R,5S)-3,8-diazabicyclo[3.2.1]octan-3-yl)-8-fluoro-7-(3-hydroxynaphthalen-1-yl)quinazolin-2-yl)oxy)-2,2-dimethylpropanoic acid], the IC50 [1] was 10 to 100 µM and the IC50 [2] was 0.0001 to 10 µM.
For `COC(=O)C(C)(C)COc1nc(N2C[C@H]3CC[C@@H](C2)N3)c2ccc(-c3cc(O)cc4ccccc34)c(F)c2n1` [P-0648, methyl 3-((4-((1R,5S)-3,8-diazabicyclo[3.2.1]octan-3-yl)-8-fluoro-7-(3-hydroxynaphthalen-1-yl)quinazolin-2-yl)oxy)-2,2-dimethylpropanoate], the IC50 [1] was 10 to 100 µM and the IC50 [2] was 0.0001 to 10 µM.
`Oc1cc(-c2ccc3c(N4C[C@H]5CC[C@@H](C4)N5)nc(OCCN4CCC(F)(F)C4)nc3c2F)c2ccccc2c1` [P-0649, 4-(4-((1R,5S)-3,8-diazabicyclo[3.2.1]octan-3-yl)-2-(2-(3,3-difluoropyrrolidin-1-yl)ethoxy)-8-fluoroquinazolin-7-yl)naphthalen-2-ol] showed an IC50 [1] of 0.0001 to 10 µM and an IC50 [2] of 0.0001 to 10 µM.
Work on `Oc1cc(-c2ccc3c(N4C[C@H]5CC[C@@H](C4)N5)nc(OCC4CC(O)C4)nc3c2F)c2ccccc2c1` (stereo partly drawn) [P-0650, 4-(4-((1R,5S)-3,8-diazabicyclo[3.2.1]octan-3-yl)-8-fluoro-2-((3-hydroxycyclobutyl)methoxy)quinazolin-7-yl)naphthalen-2-ol] yielded an IC50 [1] of 0.0001 to 10 µM and an IC50 [2] of 0.0001 to 10 µM.
Work on `OCC1(COc2nc(N3C[C@H]4CC[C@@H](C3)N4)c3ccc(-c4cc(O)cc5ccccc45)c(F)c3n2)CCC1` [P-0651, 4-(4-((1R,5S)-3,8-diazabicyclo[3.2.1]octan-3-yl)-8-fluoro-2-((1-(hydroxymethyl)cyclobutyl)methoxy)quinazolin-7-yl)naphthalen-2-ol] yielded an IC50 [1] of 0.0001 to 10 µM and an IC50 [2] of 0.0001 to 10 µM.
In the case of `OCCCOc1nc(N2C[C@H]3CC[C@@H](C2)N3)c2ccc(-c3cc(O)cc4ccccc34)c(F)c2n1` [P-0652, 4-(4-((1R,5S)-3,8-diazabicyclo[3.2.1]octan-3-yl)-8-fluoro-2-(3-hydroxypropoxy)quinazolin-7-yl)naphthalen-2-ol], the IC50 [1] was 10 to 100 µM and the IC50 [2] was 0.0001 to 10 µM.
`Fc1c(-c2c[nH]c3cccc(CC4CC4)c23)ccc2c(N3C[C@H]4CC[C@@H](C3)N4)nc(OCC34CCCN3CCC4)nc12` [P-0653, 4-((1R,5S)-3,8-diazabicyclo[3.2.1]octan-3-yl)-7-(4-(cyclopropylmethyl)-1H-indol-3-yl)-8-fluoro-2-((tetrahydro-1H-pyrrolizin-7a(5H)-yl)methoxy)quinazoline] was tested, and the IC50 [1] was 0.0001 to 10 µM and the IC50 [2] was 0.0001 to 10 µM.
`CN1CCC[C@H]1COc1nc(N2C[C@H]3CC[C@@H](C2)N3)c2ccc(-c3c[nH]c4cccc(Cl)c34)c(F)c2n1` [P-0654, 4-((1R,5S)-3,8-diazabicyclo[3.2.1]octan-3-yl)-7-(4-chloro-1H-indol-3-yl)-8-fluoro-2-(((S)-1-methylpyrrolidin-2-yl)methoxy)quinazoline] was tested, and the IC50 [1] was 10 to 100 µM and the IC50 [2] was 0.0001 to 10 µM.
`O=C(CCO)Nc1nc(N2C[C@H]3CC[C@@H](C2)N3)c2ccc(-c3cc(O)cc4ccccc34)c(F)c2n1` [P-0655, N-(4-((1R,5S)-3,8-diazabicyclo[3.2.1]octan-3-yl)-8-fluoro-7-(3-hydroxynaphthalen-1-yl)quinazolin-2-yl)-3-hydroxypropanamide] showed an IC50 [1] of 100 to 1000 µM and an IC50 [2] of 0.0001 to 10 µM.
`CC(C)(O)CCOc1nc(N2C[C@H]3CC[C@@H](C2)N3)c2ccc(-c3cc(O)cc4ccccc34)c(F)c2n1` [P-0656, 4-(4-((1R,5S)-3,8-diazabicyclo[3.2.1]octan-3-yl)-8-fluoro-2-(3-hydroxy-3-methylbutoxy)quinazolin-7-yl)naphthalen-2-ol] was tested, and the IC50 [1] was 10 to 100 µM and the IC50 [2] was 0.0001 to 10 µM.
